Laboratory results from the kinase profiling compilation of Christmann-Franck et al. (2016).

Key:
Test in all cases: KINOMEscan competition binding
Conditions in all cases: compound 10.0 µM
[1] = target: MYLK2 (human) (UniProt Q9H1R3)
[2] = target: STK11 (human) (UniProt Q15831)
[3] = target: ZAP70 (human) (UniProt P43403)
[4] = target: PRKAA1 (human) (UniProt Q13131)
[5] = target: MYO3A (human) (UniProt Q8NEV4)
[6] = system: EGFR (human), P00533 [747-751 del / S ins]
[7] = target: CDK3 (human) (UniProt Q00526)
[8] = target: PKMYT1 (human) (UniProt Q99640)
[9] = target: TTK (human) (UniProt P33981)
[10] = target: RPS6KA6 KD1 (human) (UniProt Q9UK32)
[11] = target: PKN2 (human) (UniProt Q16513)
[12] = target: CSNK2A2 (human) (UniProt P19784)
[13] = target: RIPK2 (human) (UniProt O43353)
[14] = target: NEK1 (human) (UniProt Q96PY6)
[15] = target: FLT3 (human) (UniProt P36888)
[16] = target: MYLK4 (human) (UniProt Q86YV6)
[17] = target: TXK (human) (UniProt P42681)
[18] = target: LYN (human) (UniProt P07948)
[19] = target: PDGFRA (human) (UniProt P16234)
[20] = target: CDK17 (human) (UniProt Q00537)
[21] = target: CDC42BPB (human) (UniProt Q9Y5S2)
[22] = target: MAP3K7 (human) (UniProt O43318)
[23] = target: JAK2 JH1 catalytic (human) (UniProt O60674)
[24] = target: TNIK (human) (UniProt Q9UKE5)
[25] = target: ADCK3 (human) (UniProt Q8NI60)
[26] = target: MAPKAPK5 (human) (UniProt Q8IW41)
[27] = target: PRKD2 (human) (UniProt Q9BZL6)
[28] = target: ACVRL1 (human) (UniProt P37023)
[29] = target: CHUK (human) (UniProt O15111)
[30] = target: PKN1 (human) (UniProt Q16512)
[31] = target: EPHB1 (human) (UniProt P54762)
[32] = target: TLK2 (human) (UniProt Q86UE8)
[33] = target: SLK (human) (UniProt Q9H2G2)
[34] = target: CAMK2D (human) (UniProt Q13557)
[35] = system: FLT3 (human), P36888 [ITD]
[36] = target: PRKAA2 (human) (UniProt P54646)
[37] = target: STK10 (human) (UniProt O94804)
[38] = target: EPHA1 (human) (UniProt P21709)
[39] = target: EPHA3 (human) (UniProt P29320)
[40] = target: ADCK4 (human) (UniProt Q96D53)
[41] = target: RIPK1 (human) (UniProt Q13546)
[42] = target: ERBB2 (human) (UniProt P04626)

Sequence of EPHA3 (human) (P29320 whole entry, looked up): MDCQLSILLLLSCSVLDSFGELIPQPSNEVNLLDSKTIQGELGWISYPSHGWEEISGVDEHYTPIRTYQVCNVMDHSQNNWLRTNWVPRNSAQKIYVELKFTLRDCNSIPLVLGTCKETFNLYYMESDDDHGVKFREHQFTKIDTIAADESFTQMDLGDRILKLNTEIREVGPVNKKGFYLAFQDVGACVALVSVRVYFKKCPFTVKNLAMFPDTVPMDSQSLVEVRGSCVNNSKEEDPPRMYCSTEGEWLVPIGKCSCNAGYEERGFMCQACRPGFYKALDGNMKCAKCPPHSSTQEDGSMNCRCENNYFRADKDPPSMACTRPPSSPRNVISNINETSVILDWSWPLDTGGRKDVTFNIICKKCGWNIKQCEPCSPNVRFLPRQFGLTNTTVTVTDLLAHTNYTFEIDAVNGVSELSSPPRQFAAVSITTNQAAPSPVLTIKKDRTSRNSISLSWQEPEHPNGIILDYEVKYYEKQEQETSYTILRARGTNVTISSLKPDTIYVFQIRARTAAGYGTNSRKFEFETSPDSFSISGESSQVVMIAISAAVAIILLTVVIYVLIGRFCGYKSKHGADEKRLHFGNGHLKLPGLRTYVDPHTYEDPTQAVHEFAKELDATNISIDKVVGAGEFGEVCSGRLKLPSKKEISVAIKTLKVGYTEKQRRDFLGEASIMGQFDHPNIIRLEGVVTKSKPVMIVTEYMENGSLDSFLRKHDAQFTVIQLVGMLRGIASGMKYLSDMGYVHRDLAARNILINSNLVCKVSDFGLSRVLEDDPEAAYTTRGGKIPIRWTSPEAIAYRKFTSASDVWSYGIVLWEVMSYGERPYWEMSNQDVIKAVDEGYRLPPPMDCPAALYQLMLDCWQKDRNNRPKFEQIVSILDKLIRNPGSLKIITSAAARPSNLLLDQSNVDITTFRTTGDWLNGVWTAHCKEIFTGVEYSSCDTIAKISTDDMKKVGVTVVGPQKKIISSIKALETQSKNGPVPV
Sequence of RIPK1 (human) (Q13546 whole entry, looked up): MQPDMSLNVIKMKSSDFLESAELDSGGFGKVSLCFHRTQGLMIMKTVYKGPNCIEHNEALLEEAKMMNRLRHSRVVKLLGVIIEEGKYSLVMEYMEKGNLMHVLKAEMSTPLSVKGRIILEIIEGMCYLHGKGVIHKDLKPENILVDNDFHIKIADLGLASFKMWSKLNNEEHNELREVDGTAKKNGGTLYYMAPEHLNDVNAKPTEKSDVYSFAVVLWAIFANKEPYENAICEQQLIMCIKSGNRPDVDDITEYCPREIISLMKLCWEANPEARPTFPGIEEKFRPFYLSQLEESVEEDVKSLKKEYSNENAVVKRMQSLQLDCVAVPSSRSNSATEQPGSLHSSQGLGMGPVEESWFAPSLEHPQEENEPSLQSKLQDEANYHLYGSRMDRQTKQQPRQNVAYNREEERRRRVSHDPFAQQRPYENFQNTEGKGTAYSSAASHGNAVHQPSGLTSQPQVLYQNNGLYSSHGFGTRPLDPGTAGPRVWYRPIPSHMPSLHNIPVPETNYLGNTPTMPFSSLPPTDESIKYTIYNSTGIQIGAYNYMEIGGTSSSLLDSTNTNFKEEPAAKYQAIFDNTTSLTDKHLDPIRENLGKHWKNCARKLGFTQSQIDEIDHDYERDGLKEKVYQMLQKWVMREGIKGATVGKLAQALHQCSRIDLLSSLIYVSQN
Sequence of PDGFRA (human) (P16234 whole entry, looked up): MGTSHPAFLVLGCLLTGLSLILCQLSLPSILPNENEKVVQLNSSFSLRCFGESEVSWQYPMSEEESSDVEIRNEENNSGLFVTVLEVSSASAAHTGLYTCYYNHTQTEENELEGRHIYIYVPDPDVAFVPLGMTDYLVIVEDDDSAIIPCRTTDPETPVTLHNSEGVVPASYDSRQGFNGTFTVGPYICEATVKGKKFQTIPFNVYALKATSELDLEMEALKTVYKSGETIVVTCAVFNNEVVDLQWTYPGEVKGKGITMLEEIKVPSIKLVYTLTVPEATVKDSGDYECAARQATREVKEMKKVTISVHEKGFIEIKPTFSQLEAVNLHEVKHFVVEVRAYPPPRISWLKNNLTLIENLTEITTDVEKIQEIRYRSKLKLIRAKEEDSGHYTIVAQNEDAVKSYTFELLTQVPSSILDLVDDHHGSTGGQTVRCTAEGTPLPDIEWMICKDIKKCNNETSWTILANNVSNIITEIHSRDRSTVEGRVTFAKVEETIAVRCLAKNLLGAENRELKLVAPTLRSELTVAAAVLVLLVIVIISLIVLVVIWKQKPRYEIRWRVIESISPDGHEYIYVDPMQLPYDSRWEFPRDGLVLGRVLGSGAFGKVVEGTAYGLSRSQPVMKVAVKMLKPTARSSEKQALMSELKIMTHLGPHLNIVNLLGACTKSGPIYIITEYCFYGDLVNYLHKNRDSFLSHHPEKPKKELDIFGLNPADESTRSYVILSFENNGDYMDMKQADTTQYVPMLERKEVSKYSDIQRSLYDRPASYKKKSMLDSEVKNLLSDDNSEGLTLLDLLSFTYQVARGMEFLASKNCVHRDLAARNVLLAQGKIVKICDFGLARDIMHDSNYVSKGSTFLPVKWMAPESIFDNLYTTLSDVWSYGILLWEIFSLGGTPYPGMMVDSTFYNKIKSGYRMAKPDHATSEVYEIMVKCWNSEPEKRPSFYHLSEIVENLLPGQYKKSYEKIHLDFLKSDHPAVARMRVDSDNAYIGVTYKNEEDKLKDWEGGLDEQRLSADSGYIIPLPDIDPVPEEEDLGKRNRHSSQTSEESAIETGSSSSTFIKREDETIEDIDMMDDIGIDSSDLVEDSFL
Sequence of CDK17 (human) (Q00537 whole entry, looked up): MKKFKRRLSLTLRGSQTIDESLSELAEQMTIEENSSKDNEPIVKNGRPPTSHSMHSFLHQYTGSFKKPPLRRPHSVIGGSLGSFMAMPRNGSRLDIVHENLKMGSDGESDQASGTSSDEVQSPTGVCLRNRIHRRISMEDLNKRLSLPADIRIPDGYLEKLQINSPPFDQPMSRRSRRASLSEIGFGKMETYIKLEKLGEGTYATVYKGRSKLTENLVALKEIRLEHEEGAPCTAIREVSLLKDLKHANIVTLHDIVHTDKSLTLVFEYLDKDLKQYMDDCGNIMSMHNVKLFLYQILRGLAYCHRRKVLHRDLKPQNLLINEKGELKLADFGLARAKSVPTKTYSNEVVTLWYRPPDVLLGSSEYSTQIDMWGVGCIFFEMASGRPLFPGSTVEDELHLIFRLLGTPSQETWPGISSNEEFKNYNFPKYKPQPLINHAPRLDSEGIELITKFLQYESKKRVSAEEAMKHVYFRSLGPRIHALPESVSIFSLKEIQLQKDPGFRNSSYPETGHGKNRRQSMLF
Sequence of MYO3A (human) (Q8NEV4 whole entry, looked up): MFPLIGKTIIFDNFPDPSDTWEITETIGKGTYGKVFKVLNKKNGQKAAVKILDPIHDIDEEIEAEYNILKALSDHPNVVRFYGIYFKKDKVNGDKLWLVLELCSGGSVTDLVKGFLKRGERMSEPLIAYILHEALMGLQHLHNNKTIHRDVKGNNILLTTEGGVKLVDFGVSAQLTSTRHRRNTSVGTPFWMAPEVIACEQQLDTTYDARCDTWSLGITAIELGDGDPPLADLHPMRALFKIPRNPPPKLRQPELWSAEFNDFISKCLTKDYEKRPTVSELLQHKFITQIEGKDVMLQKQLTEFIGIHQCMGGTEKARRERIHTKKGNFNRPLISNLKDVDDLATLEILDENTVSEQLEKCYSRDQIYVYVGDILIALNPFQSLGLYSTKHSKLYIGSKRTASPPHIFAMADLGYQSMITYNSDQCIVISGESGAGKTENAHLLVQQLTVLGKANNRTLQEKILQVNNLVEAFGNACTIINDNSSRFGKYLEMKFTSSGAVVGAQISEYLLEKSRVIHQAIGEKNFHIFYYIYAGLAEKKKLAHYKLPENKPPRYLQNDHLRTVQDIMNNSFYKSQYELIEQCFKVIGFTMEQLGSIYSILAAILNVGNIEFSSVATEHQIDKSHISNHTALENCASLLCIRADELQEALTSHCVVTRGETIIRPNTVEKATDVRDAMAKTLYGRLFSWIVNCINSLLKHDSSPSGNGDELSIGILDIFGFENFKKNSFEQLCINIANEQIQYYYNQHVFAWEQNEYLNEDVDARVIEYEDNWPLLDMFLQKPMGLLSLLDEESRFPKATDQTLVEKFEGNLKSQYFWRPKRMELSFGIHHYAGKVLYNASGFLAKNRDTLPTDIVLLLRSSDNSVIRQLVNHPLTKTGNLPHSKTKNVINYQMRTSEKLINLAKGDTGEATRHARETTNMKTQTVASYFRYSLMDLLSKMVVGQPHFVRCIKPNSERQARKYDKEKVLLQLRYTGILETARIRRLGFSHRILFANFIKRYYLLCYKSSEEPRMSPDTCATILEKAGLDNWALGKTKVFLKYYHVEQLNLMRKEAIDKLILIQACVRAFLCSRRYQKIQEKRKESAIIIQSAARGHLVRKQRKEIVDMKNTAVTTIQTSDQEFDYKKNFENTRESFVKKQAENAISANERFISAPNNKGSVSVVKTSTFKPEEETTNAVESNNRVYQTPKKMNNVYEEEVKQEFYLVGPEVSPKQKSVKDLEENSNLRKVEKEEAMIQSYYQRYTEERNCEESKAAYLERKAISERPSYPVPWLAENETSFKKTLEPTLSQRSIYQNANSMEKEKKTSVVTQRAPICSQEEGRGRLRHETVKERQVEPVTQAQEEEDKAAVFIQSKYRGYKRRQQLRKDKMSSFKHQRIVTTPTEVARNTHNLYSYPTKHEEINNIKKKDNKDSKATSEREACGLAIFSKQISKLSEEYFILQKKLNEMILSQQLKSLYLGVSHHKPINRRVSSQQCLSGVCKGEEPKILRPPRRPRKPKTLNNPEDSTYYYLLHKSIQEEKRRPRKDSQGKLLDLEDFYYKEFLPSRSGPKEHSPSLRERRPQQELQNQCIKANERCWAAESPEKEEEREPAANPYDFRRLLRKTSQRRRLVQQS

CCN1CCN(Cc2ccc(NC(=O)c3ccc(C)c(/C=C/c4cnc(Nc5cc(N6CCNCC6)nc(C)n5)cn4)c3)cc2C(F)(F)F)CC1 was tested, and the kinase still bound, per cent of control [1] was 3.8%, the kinase still bound, per cent of control [2] was 76% and the kinase still bound, per cent of control [3] was 15%. The kinase still bound, per cent of control [4] was 18%, the kinase still bound, per cent of control [5] was 60% and the kinase still bound, per cent of control [6] was 4.6%. It also gave a kinase still bound, per cent of control [7] of 100%, a kinase still bound, per cent of control [8] of 100% and a kinase still bound, per cent of control [9] of 85%. It also gave a kinase still bound, per cent of control [10] of 100%, a kinase still bound, per cent of control [11] of 100% and a kinase still bound, per cent of control [12] of 72%. The kinase still bound, per cent of control [13] was 5.4%, the kinase still bound, per cent of control [14] was 91% and the kinase still bound, per cent of control [15] was 3.8%. It also gave a kinase still bound, per cent of control [16] of 100%, a kinase still bound, per cent of control [17] of 4% and a kinase still bound, per cent of control [18] of 1%. It also gave a kinase still bound, per cent of control [19] of 2.8%, a kinase still bound, per cent of control [20] of 60% and a kinase still bound, per cent of control [21] of 100%. For the same compound, the kinase still bound, per cent of control [22] was 0.75%, the kinase still bound, per cent of control [23] was 29% and the kinase still bound, per cent of control [24] was 1.9%. The kinase still bound, per cent of control [25] was 100%, the kinase still bound, per cent of control [26] was 80% and the kinase still bound, per cent of control [27] was 76%. It also gave a kinase still bound, per cent of control [28] of 79%, a kinase still bound, per cent of control [29] of 0% and a kinase still bound, per cent of control [30] of 100%. The kinase still bound, per cent of control [31] was 16%, the kinase still bound, per cent of control [32] was 100% and the kinase still bound, per cent of control [33] was 2.4%. The kinase still bound, per cent of control [34] was 100%, the kinase still bound, per cent of control [35] was 5.6% and the kinase still bound, per cent of control [36] was 14%. It also gave a kinase still bound, per cent of control [37] of 0%, a kinase still bound, per cent of control [38] of 10% and a kinase still bound, per cent of control [39] of 4.4%. The kinase still bound, per cent of control [40] was 93%, the kinase still bound, per cent of control [41] was 2.7% and the kinase still bound, per cent of control [42] was 0%.
In the case of COc1cc(N2CCC(N3CCN(C)CC3)CC2)ccc1Nc1ncc(Cl)c(Nc2ccccc2S(=O)(=O)C(C)C)n1, the kinase still bound, per cent of control [1] is reported as 40%, the kinase still bound, per cent of control [2] is reported as 40% and the kinase still bound, per cent of control [3] is reported as 10%. The kinase still bound, per cent of control [4] was 0.1%, the kinase still bound, per cent of control [5] was 0.25% and the kinase still bound, per cent of control [6] was 0.6%. It also gave a kinase still bound, per cent of control [7] of 40%, a kinase still bound, per cent of control [8] of 40% and a kinase still bound, per cent of control [9] of 0%. The kinase still bound, per cent of control [10] was 1.1%, the kinase still bound, per cent of control [11] was 3.2% and the kinase still bound, per cent of control [12] was 40%. The kinase still bound, per cent of control [13] was 40%, the kinase still bound, per cent of control [14] was 40% and the kinase still bound, per cent of control [16] was 40%. The kinase still bound, per cent of control [17] was 6.9%, the kinase still bound, per cent of control [18] was 5% and the kinase still bound, per cent of control [19] was 0.85%. It also gave a kinase still bound, per cent of control [20] of 9.9%, a kinase still bound, per cent of control [21] of 25% and a kinase still bound, per cent of control [22] of 2.2%. It also gave a kinase still bound, per cent of control [24] of 12%, a kinase still bound, per cent of control [25] of 9.2% and a kinase still bound, per cent of control [26] of 40%. The kinase still bound, per cent of control [27] was 0.05%, the kinase still bound, per cent of control [28] was 1.7% and the kinase still bound, per cent of control [29] was 40%. It also gave a kinase still bound, per cent of control [30] of 0.5%, a kinase still bound, per cent of control [31] of 0.1% and a kinase still bound, per cent of control [32] of 40%. It also gave a kinase still bound, per cent of control [33] of 0.1%, a kinase still bound, per cent of control [34] of 4.1% and a kinase still bound, per cent of control [36] of 0.15%. For the same compound, the kinase still bound, per cent of control [37] was 0%, the kinase still bound, per cent of control [38] was 0.15% and the kinase still bound, per cent of control [39] was 40%. It also gave a kinase still bound, per cent of control [40] of 0%, a kinase still bound, per cent of control [41] of 18% and a kinase still bound, per cent of control [42] of 8%.
CCN1CCN(Cc2ccc(NC(=O)c3ccc(C)c(Oc4ccnc5[nH]ccc45)c3)cc2C(F)(F)F)CC1 was tested, and the kinase still bound, per cent of control [1] was 8.4%, the kinase still bound, per cent of control [4] was 33% and the kinase still bound, per cent of control [5] was 6.4%. For the same compound, the kinase still bound, per cent of control [6] was 1.1%, the kinase still bound, per cent of control [9] was 24% and the kinase still bound, per cent of control [15] was 0.15%. It also gave a kinase still bound, per cent of control [17] of 12%, a kinase still bound, per cent of control [18] of 0.75% and a kinase still bound, per cent of control [19] of 0.6%. The kinase still bound, per cent of control [20] was 0.1%, the kinase still bound, per cent of control [23] was 2.4% and the kinase still bound, per cent of control [24] was 8.2%. The kinase still bound, per cent of control [29] was 0.95%, the kinase still bound, per cent of control [33] was 2% and the kinase still bound, per cent of control [35] was 0.7%. The kinase still bound, per cent of control [37] was 0%, the kinase still bound, per cent of control [39] was 3.4% and the kinase still bound, per cent of control [41] was 0%.
